Source: ChEMBL document CHEMBL1201862, “PubChem BioAssay data set” (2004)
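A five-concentration, 48-hour dose response in 96-well plates underlies each endpoint, interpolated linearly between surrounding concentrations. The concentration for 50% growth inhibition is given as GI50.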 Active and inactive are the calls of the source. Rule as the data show it: active = GI50 up to about 1.1 µM and inactive = higher.

Columns and labels:
Assay in all cases: NCI-60 cell line screen, 48 h
[1] = test system: OVCAR-4
[2] = test system: T47D
[3] = test system: OVCAR-5
[4] = test system: M14
[5] = test system: NCI-H226
[6] = test system: OVCAR-8
[7] = test system: MDA-N
[8] = test system: UO-31
[9] = test system: NCI-H522
[10] = test system: SNB-19
[11] = test system: MOLT-4
[12] = test system: UACC-257
[13] = test system: HT-29
[14] = test system: Hs-578T
[15] = test system: OVCAR-3
[16] = test system: BT-549
[17] = test system: RXF 393
[18] = test system: NCI-H460
[19] = test system: SF-539
[20] = test system: MCF7

Measured: GI50

COc1cc(NCCC(=O)O)c2ncccc2c1
inactive: [1] > 100 µM | [2] > 100 µM | [3] > 100 µM | [4] > 100 µM | [5] > 100 µM | [6] > 100 µM | [7] > 100 µM | [8] > 100 µM | [9] > 100 µM | [10] > 100 µM | [11] > 100 µM | [12] > 100 µM | [13] > 100 µM | [14] 23.9 µM | [15] > 100 µM | [16] > 100 µM | [17] > 100 µM | [18] > 100 µM

O=C(O)c1oc(C(=O)O)c(C(=O)O)c1C(=O)O
inactive: [1] > 100 µM | [2] > 100 µM | [3] > 100 µM | [4] > 100 µM | [5] 58.9 µM | [6] > 100 µM | [7] > 100 µM | [8] > 100 µM | [9] > 100 µM | [10] > 100 µM | [11] > 100 µM | [12] > 100 µM | [13] > 100 µM | [14] > 100 µM | [15] > 100 µM | [16] > 100 µM | [17] > 100 µM | [18] > 100 µM

COc1ccc(-c2c(C#N)c(O)n(C3OC(CO)C(O)C(O)C3O)c(=S)c2C#N)cc1 (stereo unspecified)
inactive: [2] > 100 µM | [3] > 100 µM | [4] > 100 µM | [5] > 100 µM | [6] > 100 µM | [19] > 100 µM | [7] > 100 µM | [8] > 100 µM | [9] > 100 µM | [10] > 100 µM | [11] > 100 µM | [12] > 100 µM | [13] > 100 µM | [15] > 100 µM | [16] > 100 µM | [20] > 100 µM | [17] > 100 µM | [18] > 100 µM

Cn1c(=O)c2c(nc3n2CC(=O)N3CCCCl)n(C)c1=O
inactive: [1] > 100 µM | [2] > 100 µM | [3] > 100 µM | [4] > 100 µM | [5] > 100 µM | [6] > 100 µM | [7] > 100 µM | [8] > 100 µM | [10] > 100 µM | [11] 83.8 µM | [12] > 100 µM | [13] > 100 µM | [14] > 100 µM | [15] > 100 µM | [16] > 100 µM | [20] > 100 µM | [18] > 100 µM

COC(=O)/C=C(\C)CC/C=C(\C)CCC1OC1(C)C (stereo unspecified)
inactive: [1] 11.8 µM | [3] 13.6 µM | [4] 12.6 µM | [5] 12.1 µM | [6] 12.9 µM | [19] 13.5 µM | [7] 11.7 µM | [8] 10.7 µM | [10] 44.7 µM | [11] 8.17 µM | [12] 12.5 µM | [13] 14 µM | [14] 16.1 µM | [15] 11.7 µM | [16] 11.5 µM | [20] 11.5 µM | [17] 13.3 µM | [18] 13.2 µM

Cc1ccc(NC(=O)/C(=N\NC(N)=O)c2c(O)c3ccccc3[nH]c2=O)cc1
inactive: [1] > 100 µM | [2] > 100 µM | [3] > 100 µM | [4] > 100 µM | [5] > 100 µM | [6] > 100 µM | [19] > 100 µM | [7] > 100 µM | [8] > 100 µM | [10] > 100 µM | [11] > 100 µM | [12] > 100 µM | [13] > 100 µM | [14] > 100 µM | [15] > 100 µM | [16] > 100 µM | [20] > 100 µM | [17] > 100 µM | [18] > 100 µM

CC1=C(C)C2(C#N)C(=O)N3C(=NC(c4ccco4)NC3c3ccco3)C2(C#N)C(c2ccco2)N1 (stereo unspecified)
inactive: [1] > 100 µM | [2] > 100 µM | [3] > 100 µM | [4] > 100 µM | [5] > 100 µM | [6] > 100 µM | [7] > 100 µM | [8] > 100 µM | [9] > 100 µM | [10] > 100 µM | [11] > 100 µM | [12] > 100 µM | [13] > 100 µM | [14] > 100 µM | [16] > 100 µM | [20] > 100 µM | [17] > 100 µM | [18] > 100 µM

OC1c2ccccc2C(O)C2OC12 (stereo unspecified)
inactive: [1] > 100 µM | [2] > 100 µM | [3] > 100 µM | [4] > 100 µM | [5] 78.5 µM | [6] > 100 µM | [19] > 100 µM | [7] > 100 µM | [8] > 100 µM | [9] > 100 µM | [10] > 100 µM | [11] > 100 µM | [12] > 100 µM | [13] > 100 µM | [15] > 100 µM | [16] > 100 µM | [20] > 100 µM | [17] > 100 µM | [18] > 100 µM

Nc1c([N+](=O)[O-])cc2c3c(cccc13)CC2
inactive: [1] 47.8 µM | [2] 30.1 µM | [3] > 100 µM | [4] > 100 µM | [5] > 100 µM | [6] 71.3 µM | [19] 31.5 µM | [7] > 100 µM | [8] 42.5 µM | [9] 93.8 µM | [10] 86.3 µM | [11] 23.6 µM | [12] > 100 µM | [13] 98.9 µM | [14] > 100 µM | [15] > 100 µM | [16] 74.6 µM | [17] 23.1 µM | [18] 54.1 µM

CC(C)Cc1ccc(C(C)/C=C2\CCC(CN(C)C)C2=O)cc1 (stereo unspecified)
inactive: [1] 17 µM | [3] 23 µM | [4] 12.9 µM | [5] 20.2 µM | [6] 9.38 µM | [19] 16.5 µM | [7] 10.2 µM | [8] 10.9 µM | [9] 7.31 µM | [10] 12.4 µM | [11] 2.64 µM | [12] 14.8 µM | [13] 13.8 µM | [14] 2.74 µM | [15] 12.7 µM | [16] 17.1 µM | [20] 4.43 µM | [17] 20.1 µM | [18] 20 µM

COC(=O)/C1=C/C=C\C[C@@]2(C)CC(c3ccoc3)OC(=O)[C@@H]2CC[C@H]1C (stereo partly specified)
inactive: [1] > 25 µM | [3] > 25 µM | [4] > 25 µM | [5] > 25 µM | [6] > 25 µM | [19] > 25 µM | [7] > 25 µM | [8] > 25 µM | [10] > 25 µM | [11] > 25 µM | [12] > 25 µM | [13] > 25 µM | [14] > 25 µM | [15] > 25 µM | [16] > 25 µM | [20] > 25 µM | [17] > 25 µM | [18] > 25 µM

COc1ccc(C(=O)N2CCN(c3ccc4c(c3)OCC(=O)N4)CC2)cc1OC
inactive: [1] 38.1 µM | [2] 54.3 µM | [3] 52 µM | [4] > 100 µM | [5] > 100 µM | [6] > 100 µM | [19] > 100 µM | [7] > 100 µM | [8] > 100 µM | [9] 71.1 µM | [10] > 100 µM | [11] > 100 µM | [12] > 100 µM | [13] > 100 µM | [14] > 100 µM | [15] > 100 µM | [16] > 100 µM | [20] > 100 µM | [18] > 100 µM

O=[N+]([O-])c1cccc2c(/N=N/c3ccc4ccccc4c3O)c(O)cc(S(=O)(=O)O)c12
inactive: [1] 57.9 µM | [3] 34.8 µM | [4] 21.6 µM | [5] 22.6 µM | [6] 21.1 µM | [7] 31.1 µM | [8] 6.03 µM | [9] 7.36 µM | [10] > 100 µM | [11] 5.21 µM | [12] 31.8 µM | [13] 34.1 µM | [14] > 100 µM | [15] 3.47 µM | [16] 74.6 µM | [17] 38.4 µM

O=S(=O)(O)c1ccc(O)c(/N=N/c2c(O)ccc3ccccc23)c1
inactive: [1] > 100 µM | [2] > 100 µM | [3] > 100 µM | [4] > 100 µM | [5] > 100 µM | [6] > 100 µM | [7] > 100 µM | [8] > 100 µM | [9] > 100 µM | [10] > 100 µM | [11] > 100 µM | [12] > 100 µM | [13] > 100 µM | [14] > 100 µM | [15] 34.6 µM | [16] > 100 µM | [17] > 100 µM

C=C(C)C(=O)OC1C[C@H](COC(C)=O)C2CC=C(CO)C2C2OC(=O)C(=C)[C@H]12 (stereo partly specified)
inactive: [2] 34.8 µM | [3] > 100 µM | [4] 16.3 µM | [5] > 100 µM | [6] > 100 µM | [19] > 100 µM | [7] 34.5 µM | [8] 39.2 µM | [9] 19.1 µM | [10] > 100 µM | [11] 13.8 µM | [12] 38.8 µM | [13] 32.3 µM | [14] > 100 µM | [15] 42.4 µM | [16] 61.1 µM | [20] 38.1 µM | [18] > 100 µM
